Results from patent publication US20240132473A1, “SULFOXIMIDE SUBSTITUTED INDAZOLE IRAK4 KINASE INHIBITOR, PREPARATION METHOD THEREOF AND USE THEREOF” (Shanghai Xunhe Pharmaceutical Technology Co. Ltd., priority 2021, published 2024).

What was measured:
[1] = test system: TNF-α secretion in THP-1 cells; assay: Inhibition of LPS-stimulated TNF-α secretion in THP-1 cells (ELISA); assay type: cell-based; conditions: Homo sapiens, LPS 1 μg/mL, 4.5 hours
Description: TNF-α is a key cytokine involved in the inflammatory process of the listed autoimmune disease, such as rheumatoid arthritis, psoriatic arthritis, ankylosing spondylitis, psoriasis, Crohn's disease, ulcerative colitis, etc. In this test, TNF-α secretion was triggered by incubation with bacterial lipopolysaccharides (LPS). […] The 96-well plate was rotated at 2000 rpm for 5 minutes, and then 50 μL of supernatant was taken. The content of TNF-α in the supernatant was determined by human ELISA kit, and IC50 value of the compound was calculated by XL-Fit (table 4).

[2] = target: IRAK4 kinase (Homo sapiens (Human), UniProt Q9NWZ3); assay: IRAK4 kinase inhibitory activity assay (mobility shift assay, Km ATP); assay type: biochemical; conditions: MSA, ATP 37 μM (Km ATP)
Sequence of IRAK4 kinase (Q9NWZ3 whole entry): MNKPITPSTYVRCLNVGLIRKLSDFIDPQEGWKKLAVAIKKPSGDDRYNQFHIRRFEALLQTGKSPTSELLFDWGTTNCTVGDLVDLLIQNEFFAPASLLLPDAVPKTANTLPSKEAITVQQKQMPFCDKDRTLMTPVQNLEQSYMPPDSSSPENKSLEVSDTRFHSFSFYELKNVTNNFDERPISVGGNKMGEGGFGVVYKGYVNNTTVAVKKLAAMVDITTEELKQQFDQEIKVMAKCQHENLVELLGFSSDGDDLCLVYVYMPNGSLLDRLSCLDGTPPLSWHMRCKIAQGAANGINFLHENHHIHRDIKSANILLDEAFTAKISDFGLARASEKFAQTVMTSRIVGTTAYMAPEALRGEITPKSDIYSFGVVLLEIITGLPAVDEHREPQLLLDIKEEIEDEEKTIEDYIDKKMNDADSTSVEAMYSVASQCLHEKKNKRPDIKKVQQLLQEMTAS
Description: The inhibitory activity (IC50) of the compound on IRAK4 kinase under Km ATP was detected by mobility shift assay (MSA). Ten drug concentration gradients were set (initial concentration 1 μM, 3-fold dilution, 2 duplicate wells per concentration). […] After incubation at 28° C. for a period of time, 10 μL of termination buffer was added to terminate the reaction. The conversion rate data was read with Caliper, and then the conversion rate was converted into inhibition rate data. According to the inhibition rate data of each concentration, the IC50 of half inhibitory concentration was calculated by Logit method (Table 3).

[3] = in vivo; conditions: rat, po; for half-life: SD; for AUC(0-t) / Cmax / Tmax: 25 mg/kg
Description: SD rats were used as the test animals.
Standard curve and preparation and processing of quality control samples:
Stock solution was diluted with 50% acetonitrile-water to obtain standard working solutions of 0.04, 0.10, 0.20, 0.40, 1.00, 2.00, 4.00 μg/mL, and quality control working solutions of 0.10, 1.00, 3.00 μg/mL. […] 200 μL of acetonitrile (containing 5 ng/mL of the internal standard loratadine) was added. After the vortex oscillation for 3 minutes, the solutions were centrifuged at 15000 rpm at 4° C. for 15 minutes. 100 μL of the supernatant was taken for LC-MS/MS analysis. WinNonlin ® 8.0 was used to calculate the experimental results.

[4] = in vivo; conditions: ICR, mouse, po
Description: On the day of administration, observations were made approximately 0.5, 1, 2, 4, and 6 hours after the first administration. During day 2 to day 6 of the observation period, observations were made twice a day, once in the morning and once in the afternoon.
Observations included but not limited to: general conditions, behavioral activities, gait and posture, eyes, mouth, nose, gastrointestinal tract, skin hair and urogenital tract.
Weight data were expressed as mean ±standard deviation. Levene's test and one-way analysis of variance were used for comparison between groups. If there was a difference, Dunnet t test was then used.
The maximum tolerated dose refers to the dose administered when the animal was dying.

[5] = target: hERG potassium channel (Homo sapiens (Human), UniProt Q12809); assay: cell-based
Sequence of hERG potassium channel (Q12809 whole entry): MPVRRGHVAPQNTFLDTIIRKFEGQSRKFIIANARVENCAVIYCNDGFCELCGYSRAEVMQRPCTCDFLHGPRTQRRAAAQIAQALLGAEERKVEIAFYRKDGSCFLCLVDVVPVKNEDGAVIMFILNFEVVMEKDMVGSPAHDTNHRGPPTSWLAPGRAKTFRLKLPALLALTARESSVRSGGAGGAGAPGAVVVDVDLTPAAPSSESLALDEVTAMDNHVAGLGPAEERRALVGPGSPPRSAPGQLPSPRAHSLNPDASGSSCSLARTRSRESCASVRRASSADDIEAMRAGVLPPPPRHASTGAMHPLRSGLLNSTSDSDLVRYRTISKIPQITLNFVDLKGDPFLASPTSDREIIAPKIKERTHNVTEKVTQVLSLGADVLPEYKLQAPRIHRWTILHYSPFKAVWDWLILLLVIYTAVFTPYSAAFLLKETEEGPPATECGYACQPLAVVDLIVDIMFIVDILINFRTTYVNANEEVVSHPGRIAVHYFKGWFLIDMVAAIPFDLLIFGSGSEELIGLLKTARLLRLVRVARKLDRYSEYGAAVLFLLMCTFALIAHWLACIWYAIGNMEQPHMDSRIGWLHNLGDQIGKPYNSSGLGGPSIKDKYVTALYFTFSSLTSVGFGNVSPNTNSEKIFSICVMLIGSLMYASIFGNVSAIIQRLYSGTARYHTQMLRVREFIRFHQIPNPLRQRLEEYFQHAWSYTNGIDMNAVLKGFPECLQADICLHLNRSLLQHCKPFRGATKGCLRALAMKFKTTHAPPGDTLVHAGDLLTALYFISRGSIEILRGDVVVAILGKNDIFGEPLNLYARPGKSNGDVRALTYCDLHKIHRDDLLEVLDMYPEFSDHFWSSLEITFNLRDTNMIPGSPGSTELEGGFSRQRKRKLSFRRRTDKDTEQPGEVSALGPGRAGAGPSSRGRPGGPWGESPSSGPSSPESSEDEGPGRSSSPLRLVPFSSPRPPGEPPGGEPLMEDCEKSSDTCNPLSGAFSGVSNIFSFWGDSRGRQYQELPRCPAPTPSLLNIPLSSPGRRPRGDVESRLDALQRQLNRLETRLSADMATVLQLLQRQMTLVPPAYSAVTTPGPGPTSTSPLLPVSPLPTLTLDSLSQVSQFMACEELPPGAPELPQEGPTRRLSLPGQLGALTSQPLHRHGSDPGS
Text: The rapid activation of delayed rectifier outward potassium current (IKr) in humans is mainly mediated by hERG ion channel and participates in human myocardial cell repolarization. Drug blockade of this current will lead to the appearance of QT interval prolongation syndrome in clinical practice, which can easily induce acute arrhythmia and even sudden death.

CC(C)(O)c1cc2nn(CCS(=N)(=O)c3ccncc3)cc2cc1NC(=O)c1cccc(C(F)(F)F)n1 (stereo not drawn) [Compound I-6]
IC50 [1]: 0.6 nM | IC50 [2]: 0.2 nM

Cc1cc(-c2nc(C(=O)Nc3cc4cn(CCS(=N)(=O)c5ccncc5)nc4cc3N3CCOCC3)co2)ccn1 (stereo not drawn) [Compound I-17]
IC50 [1]: 1.2 nM | half-life ([3]; in vivo): 5.4 h | AUC(0-t) ([3]; plasma): 8200 ng·h/mL | Cmax ([3]; plasma): 1430 ng/mL | Tmax ([3]; plasma): 5.8 h | IC50 [2]: 0.5 nM

COc1cc2nn(CCS(=N)(=O)c3ccc(F)cc3)cc2cc1NC(=O)c1cccc(C(F)(F)F)n1 (stereo not drawn) [Compound I-27]
IC50 [1]: 1.3 nM | IC50 [2]: 0.7 nM

Cc1cc2nn(CCS(=N)(=O)c3ccccc3)cc2cc1NC(=O)c1cccc(C(F)(F)F)n1 (stereo not drawn) [Compound I-13]
IC50 [1]: 1.1 nM | IC50 [2]: 0.4 nM

N=S(=O)(CCn1cc2cc(NC(=O)c3cccc(C(F)(F)F)n3)c(N3CCOCC3)cc2n1)c1ccnc2ccccc12 (stereo not drawn) [Compound I-11]
IC50 [1]: 0.8 nM | IC50 [2]: 0.5 nM

Cc1cc(-c2nc(C(=O)Nc3cc4cn(CCS(=N)(=O)c5ncccn5)nc4cc3C(C)(C)O)co2)ccn1 (stereo not drawn) [Compound I-32]
IC50 [1]: 1 nM | IC50 [2]: 0.5 nM

COc1cc2nn(CCS(=N)(=O)c3nccs3)cc2cc1NC(=O)c1cccc(C(F)(F)F)n1 (stereo not drawn) [Compound I-35]
IC50 [1]: 0.7 nM | IC50 [2]: 0.7 nM

CC(C)(O)c1cc2nn(CCS(=N)(=O)c3ccccc3)cc2cc1NC(=O)c1cnn2cccnc12 (stereo not drawn) [Compound I-22]
IC50 [1]: 0.8 nM | IC50 [2]: 0.3 nM

CC(C)(O)c1cc2nn(CCS(C)(=O)=O)cc2cc1NC(=O)c1cccc(C(F)(F)F)n1 [BAY-1834845, reference compound]
Cmax ([3]; in vivo): 201 ng/mL

N=S(=O)(CCn1cc2cc(NC(=O)c3cccc(C(F)(F)F)n3)c(N3CCC(O)C3)cc2n1)c1ccccc1 (stereo not drawn) [Compound I-4]
IC50 [1]: 1.3 nM | half-life ([3]; in vivo): 4.7 h | AUC(0-t) ([3]; plasma): 8530 ng·h/mL | Cmax ([3]; plasma): 1500 ng/mL | Tmax ([3]; plasma): 6 h | IC50 [2]: 0.3 nM

COc1cc2nn(CCS(=N)(=O)c3ccnc4ccccc34)cc2cc1NC(=O)c1cccc(C(F)(F)F)n1 (stereo not drawn) [Compound I-9]
IC50 [1]: 1 nM | half-life ([3]; in vivo): 4.8 h | AUC(0-t) ([3]; plasma): 8520 ng·h/mL | Cmax ([3]; plasma): 1420 ng/mL | Tmax ([3]; plasma): 5.5 h | IC50 [2]: 0.2 nM

COc1cc2nn(CCS(=N)(=O)c3ncco3)cc2cc1NC(=O)c1cccc(C(F)(F)F)n1 (stereo not drawn) [Compound I-36]
IC50 [1]: 1.5 nM | half-life ([3]; in vivo): 5.4 h | AUC(0-t) ([3]; plasma): 8490 ng·h/mL | Cmax ([3]; plasma): 1490 ng/mL | Tmax ([3]; plasma): 5.6 h | IC50 [2]: 0.5 nM

N=S(=O)(CCn1cc2cc(NC(=O)c3cccc(C(F)(F)F)n3)c(N3CCC(O)C3)cc2n1)c1ccnc2ccccc12 (stereo not drawn) [Compound I-12]
IC50 [1]: 0.6 nM | IC50 [2]: 0.3 nM

Cc1cc(-c2nc(C(=O)Nc3cc4cn(CCS(=N)(=O)c5ccncc5)nc4cc3N3CCC(O)C3)co2)ccn1 (stereo not drawn) [Compound I-18]
IC50 [1]: 1.4 nM | IC50 [2]: 0.4 nM

CC(C)(O)CCn1cc2cc(NC(=O)c3cccc(C(F)(F)F)n3)c(C(C)(C)O)cc2n1 [BAY-1830839, reference compound]
Cmax ([3]; in vivo): 223 ng/mL

Cc1cc(-c2nc(C(=O)Nc3cc4cn(CCS(=N)(=O)c5ccccc5)nc4cc3N3CCOCC3)co2)ccn1 (stereo not drawn) [Compound I-30]
IC50 [1]: 0.9 nM | IC50 [2]: 0.6 nM

N=S(=O)(CCn1cc2cc(NC(=O)c3cnn4cccnc34)c(N3CCC(O)C3)cc2n1)c1ccccn1 (stereo not drawn) [Compound I-24]
IC50 [1]: 0.8 nM | half-life ([3]; in vivo): 5.5 h | AUC(0-t) ([3]; plasma): 8900 ng·h/mL | Cmax ([3]; plasma): 1420 ng/mL | Tmax ([3]; plasma): 6.2 h | IC50 [2]: 0.8 nM | MTD at 6 days [4]: > 2000 mg/kg

Cc1cc(-c2nc(C(=O)Nc3cc4cn(CCS(=N)(=O)c5ccncc5)nc4cc3C(C)(C)O)co2)ccn1 (stereo not drawn) [Compound I-16]
IC50 [1]: 0.9 nM | half-life ([3]; in vivo): 6.3 h | AUC(0-t) ([3]; plasma): 9230 ng·h/mL | Cmax ([3]; plasma): 1360 ng/mL | Tmax ([3]; plasma): 6 h | IC50 [2]: 0.5 nM | MTD at 6 days [4]: > 2000 mg/kg

COc1cc2nn(CCS(C)(=N)=O)cc2cc1NC(=O)c1cccc(C(F)(F)F)n1 (stereo not drawn) [MY-004-103, reference compound]
IC50 [1]: 125 nM | half-life ([3]; in vivo): 1.4 h | AUC(0-t) ([3]; plasma): 734 ng·h/mL | Cmax ([3]; plasma): 245 ng/mL | Tmax ([3]; plasma): 1.4 h

N=S(=O)(CCn1cc2cc(NC(=O)c3cccc(C(F)(F)F)n3)c(N3CCC(O)C3)cc2n1)c1ccncc1 (stereo not drawn) [Compound I-8]
IC50 [1]: 0.9 nM | IC50 [2]: 0.6 nM

N=S(=O)(CCn1cc2cc(NC(=O)c3cccc(C(F)(F)F)n3)c(N3CCOCC3)cc2n1)c1ccncc1 (stereo not drawn) [Compound I-7]
IC50 [1]: 1.2 nM | half-life ([3]; in vivo): 5 h | AUC(0-t) ([3]; plasma): 8630 ng·h/mL | Cmax ([3]; plasma): 1500 ng/mL | Tmax ([3]; plasma): 5 h | IC50 [2]: 0.5 nM | MTD at 6 days [4]: > 2000 mg/kg

COc1cc2nn(CCS(=N)(=O)c3ccccn3)cc2cc1NC(=O)c1cccc(C(F)(F)F)n1 (stereo not drawn) [Compound I-19]
IC50 [1]: 0.9 nM | IC50 [2]: 0.8 nM

N=S(=O)(CCn1cc2cc(NC(=O)c3cnn4cccnc34)c(N3CCOCC3)cc2n1)c1ccnc2ccccc12 (stereo not drawn) [Compound I-23]
IC50 [1]: 1.1 nM | IC50 [2]: 0.4 nM

CC(C)(O)c1cc2nn(CCS(C)(=N)=O)cc2cc1NC(=O)c1cccc(C(F)(F)F)n1 (stereo not drawn) [MY-004-102, reference compound]
IC50 [1]: 169 nM | IC50 [5]: ~50000 nM | half-life ([3]; in vivo): 1.4 h | AUC(0-t) ([3]; plasma): 700 ng·h/mL | Cmax ([3]; plasma): 235 ng/mL | Tmax ([3]; plasma): 1.3 h | MTD at 6 days [4]: 750 mg/kg

N=S(=O)(CCn1cc2cc(NC(=O)c3cnn4cccnc34)c(N3CCOCC3)cc2n1)c1ncccn1 (stereo not drawn) [Compound I-33]
IC50 [1]: 1.4 nM | IC50 [2]: 0.4 nM

COc1cc2nn(CCS(=N)(=O)c3ccccc3)cc2cc1NC(=O)c1coc(-c2ccnc(C)c2)n1 (stereo not drawn) [Compound I-28]
IC50 [1]: 0.7 nM | IC50 [2]: 0.7 nM

CN=S(=O)(CCn1cc2cc(NC(=O)c3cccc(C(F)(F)F)n3)c(OC)cc2n1)c1ccccc1 (stereo not drawn) [Compound I-25]
IC50 [1]: 1.2 nM | IC50 [2]: 0.5 nM

N=S(=O)(CCn1cc2cc(NC(=O)c3cccc(C(F)(F)F)n3)c(N3CCOCC3)cc2n1)c1ccccc1 (stereo not drawn) [Compound I-3]
IC50 [1]: 0.6 nM | IC50 [2]: 0.6 nM

COc1cc2nn(CCS(=N)(=O)c3ccncc3)cc2cc1NC(=O)c1coc(-c2ccnc(C)c2)n1 (stereo not drawn) [Compound I-15]
IC50 [1]: 0.9 nM | half-life ([3]; in vivo): 6 h | AUC(0-t) ([3]; plasma): 8230 ng·h/mL | Cmax ([3]; plasma): 1380 ng/mL | Tmax ([3]; plasma): 5.9 h | IC50 [2]: 0.7 nM

Cc1cc(-c2nc(C(=O)Nc3cc4cn(CCS(=N)(=O)c5ccccn5)nc4cc3N3CCC(O)C3)co2)ccn1 (stereo not drawn) [Compound I-20]
IC50 [1]: 1.1 nM | half-life ([3]; in vivo): 4.5 h | AUC(0-t) ([3]; plasma): 7500 ng·h/mL | Cmax ([3]; plasma): 1400 ng/mL | Tmax ([3]; plasma): 4.9 h | IC50 [2]: 0.6 nM
